Assay results reported in US20140249218A1, “ADMINISTRATION OF INGENOL MEBUTATE” (LEO Laboratories Limited, priority 2013, published 2014).

How the values were obtained:
[1] = Skin permeation of [3H]-PEP005, human split-thickness skin; format: in vitro ADME; details: gel ca 0.05% w/w
Protocol: (§1) The rate and extent of absorption of [^3H]-ingenol mebutate over a 24 h exposure period following topical application of the gel to Wistar (WI) rat, Sprague Dawley (SD) rat, Göttingen mini-pig and human split-thickness skin was also assessed.

[2] = Skin permeation of [3H]-PEP005, mini-pig split-thickness skin; format: in vitro ADME, Göttingen mini-pig
Protocol: as §1
The maximum hourly flux was 0.44, 0.80, 2.09, and 6.12 ng equiv./cm^2/h for human, mini-pig, SD and WI rat skin, respectively. […] The flux profile for mini-pig was dissimilar to the other species/strains. […] The other three species/strains had similar flux profiles with lag times of ca 1, 2 and 3 h for the human, SD and WI rat skin, respectively. This was followed by steady state flux from 4-24 h, 6-24 h and 8-24 h, respectively. Steady state flux was 0.39, 2.01 and 5.87 ng equiv./cm^2/h for the human, SD and WI rat skin, respectively. […] These differences with the mini-pig group compared to the other three skin groups may have been attributed to the preparation of the split-thickness skin. Due to the hair follicle depth in mini-pig skin, split-thickness skin was prepared at a depth of ca […] compared to ca […] for the other skin groups. Therefore, the thicker layer of dermis for the mini-pig skin may have acted as a reservoir for [3H]-PEP005 prior to partitioning into the receptor fluid.

[3] = Skin permeation of [3H]-PEP005, Sprague Dawley rat split-thickness skin; format: in vitro ADME, Sprague Dawley (SD) rat
Protocol: as §1

[4] = Skin permeation of [3H]-PEP005, Wistar rat split-thickness skin; format: in vitro ADME, Wistar (WI) rat
Protocol: as §1

[5] = Stress milling (mortar and pestle); format: physicochemical; details: manual grinding about 2, 5 and 10 mins
Protocol: Crystalline ingenol mebutate is subjected to stress milling to investigate its physico-chemical stability. In the study, crystalline ingenol mebutate is manually ground using a mortar and pestle for durations of about 2, about 5 and about 10 mins.
Crystalline ingenol mebutate was subjected to stress milling (manually using a mortar and pestle) for durations of about 2, about 5 and about 10 mins.

[6] = format: physicochemical; details: room temperature
Protocol: For the experiment, a slurry mixture of forms A, X and Y in cyclohexane was stirred for about 48 hours at room temperature. After about 24 hours, the complete sample was transformed into form A (see FIG. 17).
A polymorphic crystalline form of the compound of Formula 1 was characterized and identified as form A″ The stability of form A at room temperature was confirmed by the slurry experiments at room temperature.

[7] = Conversion of solvate forms upon heating; format: physicochemical
[8] = tested on: rats; assay: Teratogenicity study, intravenous route, rats; format: in vivo, rat; details: 5 μg/kg/day = 30 μg/m^2/day
Protocol: (§2) Teratogenicity studies with ingenol mebutate were performed by the intravenous route in rats and rabbits.
(§3) In rats, ingenol mebutate was not associated with fetal developmental effects at doses up to 5 μg/kg/day (30 μg/m^2/day).

[9] = tested on: isolated human keratinocytes; assay: Exposure of isolated keratinocytes in vitro; format: cell-based; details: subclinical concentrations
[10] = tested on: human cytochrome P450 isoforms; assay: In vitro cytochrome P450 inhibition/induction; format: in vitro ADME
[11] = Teratogenicity study, intravenous route, rabbits; format: in vivo, rabbit; details: female, rabbit, in vivo, 12 μg/m^2/day, read-out: fetal NOAEL
Protocol: as §2, §3
(§4) The fetal NOAEL was 1 μg/kg/day (12 μg/m^2/day).

[12] = tested on: rabbits; assay: Teratogenicity study, intravenous route, rabbits; format: in vivo, rabbit; details: rabbits
Protocol: as §2, §3, §4

[13] = tested on: mouse lymphoma; assay: Mouse lymphoma assay; format: cell-based
Protocol: (§5) Carcinogenic evaluations of ingenol mebutate have not been conducted. Ingenol mebutate was not mutagenic in an in vitro Ames test, mouse lymphoma assay, and in vivo rat micronucleus test. Ingenol mebutate was positive in the Syrian hamster embryo (SHE) cell transformation assay at concentrations≧0.1 μg/mL.

[14] = tested on: rat; assay: In vivo rat micronucleus test
Protocol: as §5

[15] = tested on: Syrian hamster embryo (SHE) cell; assay: Syrian hamster embryo (SHE) cell transformation assay; format: cell-based
Protocol: as §5

[16] = tested on: mouse skin; assay: Application to mouse skin in vivo, inflammatory mediators; details: subclinical concentrations
[17] = tested on: tumors; assay: Mouse xenograft models, intratumoral injection; format: in vivo
[18] = tested on: skin cancer cells; details: via rapid mitochondrial disruption and primary necrosis; normal cells less sensitive; cited from earlier work
[19] = tested on: squamous cell carcinoma and melanoma tumor; assay: Mouse xenograft squamous cell carcinoma and melanoma tumor models, topical; format: in vivo
[20] = tested on: skin; assay: UV irradiation studies (photoirritation, photoallergy); format: in vivo; details: ingenol mebutate 0.01%, single and multiple applications
Text: Studies have been conducted to assess the effects of UV irradiation on the skin following single and multiple applications of ingenol mebutate, 0.01%. […] However, excessive exposure to sunlight (including sunlamps and tanning beds) should be avoided or minimized during use of TRADEMARK Gel due to the nature of the disease.

[21] = tested on: receptors and enzymes; assay: Off-target activity in various in vitro assays
[22] = tested on: tumor cells; assay: Direct cytotoxic effect at high concentrations; format: cell-based; details: e.g., 100 μg/mL
Text: (§6) Ingenol mebutate is a pleiotropic effector that exerts a direct cytotoxic effect on tumor cells and modulates Protein Kinase C (PKC) isoforms.

[23] = tested on: human endothelial cells; assay: PKC dependent activation of endothelial cells, neutrophil adhesion in vitro; format: cell-based; details: e.g., 10 to 100 ng/mL
Text: as §6

[24] = In vitro Ames test; format: cell-based
Protocol: as §5

[25] = Mini-Pig skin, gel ca 0.05% w/w, NO = not observed
[26] = mini-pig skin vs human skin, % applied dose
[27] = mini-pig skin, gel ca 0.05% w/w
[28] = SD rat skin vs human skin, % applied dose
[29] = Sprague Dawley Rat skin, gel ca 0.05% w/w
[30] = WI rat skin vs human skin, % applied dose
[31] = Wistar Rat skin, gel ca 0.05% w/w

C/C=C(/C)C(=O)O[C@H]1C(C)=C[C@]23C(=O)[C@@H](C=C(CO)[C@@H](O)[C@]12O)[C@H]1C(C[C@H]3C)C1(C)C (stereo in doubt) [[^3H]-ingenol mebutate]
Lag Time [1]: ~1 h
Period of Steady State Flux [1]: 4 to 24 h
Steady State Flux [1]: 0.39 ng equiv./cm^2/h
maximum hourly flux [1]: 0.44 ng equiv./cm^2/h
time post dose at which maximum flux was achieved [1]: 16 h
Unabsorbed Dose ([1]; 24 h exposure): 101.09 % Applied Dose
Unabsorbed Dose ([2]; Mini-Pig skin, gel ca 0.05% w/w, 24 h exposure): 93.35 % Applied Dose
Lag Time [2, 25]: no apparent lag time
Steady State Flux [2, 25]: no apparent lag time or steady state flux observed
dermal delivery compared to human skin, fold greater [2, 26]: ~7.9 fold
total absorption compared to human skin, fold less [2, 26]: ~1.4 fold
maximum hourly flux [2, 27]: 0.80 ng equiv./cm^2/h
time post dose at which maximum flux was achieved [2, 27]: 1 h
steady state flux compared to human skin, fold greater ([3]; SD rat skin vs human skin): ~5.2 fold
dermal delivery compared to human skin, fold greater [3, 28]: ~5.1 fold
total absorption compared to human skin, fold greater [3, 28]: ~4.9 fold
maximum hourly flux ([3]; SD rat skin, gel ca 0.05% w/w): 2.09 ng equiv./cm^2/h
Lag Time [3, 29]: ~2 h
Period of Steady State Flux [3, 29]: 6 to 24 h
Steady State Flux [3, 29]: 2.01 ng equiv./cm^2/h
Unabsorbed Dose ([3]; Sprague Dawley Rat skin, gel ca 0.05% w/w, 24 h exposure): 94.40 % Applied Dose
steady state flux compared to human skin, fold greater ([4]; WI rat skin vs human skin): ~15.1 fold
dermal delivery compared to human skin, fold greater [4, 30]: ~9.2 fold
total absorption compared to human skin, fold greater [4, 30]: ~13.8 fold
maximum hourly flux ([4]; WI rat skin, gel ca 0.05% w/w): 6.12 ng equiv./cm^2/h
time post dose at which maximum flux was achieved ([4]; WI rat skin, gel ca 0.05% w/w): 16 h
Lag Time [4, 31]: ~3 h
Period of Steady State Flux [4, 31]: 8 to 24 h
Steady State Flux [4, 31]: 5.87 ng equiv./cm^2/h
Unabsorbed Dose ([4]; Wistar Rat skin, gel ca 0.05% w/w, 24 h exposure): 90.31 % Applied Dose

C/C=C(/C)C(=O)O[C@H]1C(C)=C[C@]23C(=O)[C@@H](C=C(CO)[C@@H](O)[C@]12O)[C@H]1[C@@H](C[C@H]3C)C1(C)C [form A, ingenol mebutate]
physico-chemical stability on milling [5]: remained unaltered
relative stability of forms A, X and Y [6]: most stable form at room temperature

C/C=C(/C)C(=O)O[C@H]1C(C)=C[C@]23C(=O)[C@@H](C=C(CO)[C@@H](O)[C@]12O)[C@H]1[C@@H](C[C@H]3C)C1(C)C [form X, ingenol mebutate]
behaviour upon heating [7]: converted into form A upon heating
time to conversion to form A in slurry ([6]; slurry of forms A, X and Y in c-hexane): about 24 hours

C/C=C(/C)C(=O)O[C@H]1C(C)=C[C@]23C(=O)[C@@H](C=C(CO)[C@@H](O)[C@]12O)[C@H]1[C@@H](C[C@H]3C)C1(C)C [ingenol mebutate, (1 aR,2S,5R,5aS,6S,8aS,9R,10aR)-5,5a-dihydroxy-4-(hydroxymethyl)-1,1,7,9-tetramethyl-11-oxo-1a,2,5,5a,6,9,10,10a-octahydro-1H2,8a-methanocyclopenta[a]cyclopropa[e]cyclodecen-6-yl(2Z)-2-methylbut-2-enoate]
doses not associated with fetal developmental effects [8]: up to 5 μg/kg/day
effect on keratinocytes [9]: cytokine release and specific PKC-mediated neutrophil activation
inhibition or induction of cytochrome P450 isoforms [10]: does not inhibit or induce human cytochrome P450 isoforms
NOAEL [11]: 0.001 mg/kg/day
doses at which maternal toxicity (increased breathing) was observed ([12]; 1 μg/kg/day = 12 μg/m^2/day): ≥ 1 µg/kg/day
doses with slight increase in incidence of incompletely ossified cervical vertebral arches ([12]; 2 μg/kg/day = 24 μg/m^2/day): ≥ 2 µg/kg/day
embryo-fetal findings ([12]; 4 μg/kg/day (48 μg/m^2/day), marginal, not statistically significant): slight increase in embryonic deaths, an increase in jugular fusion to the maxilla and a variation in the origin of arteries arising from the aortic arch
mutagenicity [13]: not mutagenic
mutagenicity [14]: not mutagenic
concentrations positive in SHE cell transformation assay ([15]; Syrian hamster, Syrian hamster embryo (SHE) cells): ≥ 100 ng/mL
cell transformation result ([15]; concentrations≧0.1 μg/mL): positive
release of inflammatory mediators in mouse skin [16]: induced the release of inflammatory mediators IL-8/MIP-2 and TNF-α resulting in neutrophil recruitment and activation
Lag Time [1]: 1 h
Period of Steady State Flux [1]: 4.24 h
Steady State Flux [1]: 0.39 ng equiv./cm^2/h
immune response after intratumoral injection [17]: stimulated a tumor-specific CD8+T cell response with anti-tumor activity against distant secondary tumors
toxicity for skin cancer cells [18]: highly toxic
Lag Time [3, 29]: 2 h
Period of Steady State Flux [3, 29]: 6.24 h
Steady State Flux [3, 29]: 2.01 ng equiv./cm^2/h
effect on tumors [19]: removes tumors and prevents tumor recurrence
Lag Time [4, 31]: 3 h
Period of Steady State Flux [4, 31]: 8.24 h
Steady State Flux [4, 31]: 5.87 ng equiv./cm^2/h
photoirritation or photoallergy effects [20]: did not demonstrate any potential for photoirritation or photoallergy effects
off-target activity [21]: did not inhibit or stimulate receptors and enzymes
effect on cells at high concentrations [22]: induces mitochondrial swelling and loss of cell membrane integrity leading to cell death
effect on endothelial cells at subclinical concentrations [23]: stimulates PKC dependent activation of human endothelial cells to support neutrophil adhesion
mutagenicity [24]: not mutagenic
